Assay results from ChEMBL document CHEMBL4043133, “Discovery of a novel B-cell lymphoma 6 (BCL6)-corepressor interaction inhibitor by utilizing structure-based drug design” (Bioorg Med Chem, 2017).
In brackets after ≈: the same amount, converted by molar mass.

Key:
BCoR-BCL6 [1] = biological target: T1, BCoR-BCL6 (Homo sapiens, UniProt P41182)
Description: Inhibition of C-terminal biotin-labelled BCoR/wild-type BCL6 BTB domain (unknown origin) protein-protein interaction by ELISA

[2] = Aqueous solubility of the compound in aqueous buffer at pH 6.8 by UV-absorbance analysis; format: physicochemical
[3] = Permeability of the compound at pH 7.4 at 10 umol/L after 3 hrs by PAMPA; format: physicochemical; conditions: for permeability: pampa, pH 7.4, 3 h, 10 µM; for Papp at 3 h, 10 µM: PAMPA, pH 7.4, read-out: permeability
[4] = Volume of distribution at steady state in mouse at 1 mg/kg, po or 0.1 mg/kg, iv administered as cassette dosing; format: ADME, organism-based; conditions: in vivo, read-out: Vdss
[5] = Mean residence time in mouse at 1 mg/kg, po administered as cassette dosing; format: ADME, organism-based; conditions: in vivo
[6] = Cytotoxicity against human HepG2 cells assessed as intracellular ATP levels at 30 uM after 24 hrs by CellTiter-Glo assay relative to control; format: cell-based; conditions: read-out: Activity
[7] = Tmax in mouse at 1 mg/kg, po administered as cassette dosing; format: ADME, organism-based; conditions: in vivo
[8] = Oral bioavailability in mouse at 1 mg/kg administered as cassette dosing; format: ADME, organism-based; conditions: in vivo
[9] = AUC in mouse at 1 mg/kg, po administered as cassette dosing; format: ADME, organism-based; conditions: in vivo
[10] = Cmax in mouse at 1 mg/kg, po administered as cassette dosing; format: ADME, organism-based; parameters: dose 1 mg/kg, route oral; conditions: in vivo
[11] = Total clearance in mouse at 1 mg/kg, po or 0.1 mg/kg, iv administered as cassette dosing; format: ADME, organism-based; conditions: in vivo
BCoR-BCL6 [12] = biological target: T1, BCoR-BCL6; assay: Inhibition of recombinant human BCoR (112 to 753 residues) protein interaction with recombinant GAL4-fused BCL6 (5 to 129 residues) expressed in HEK293T cells measured after 20 hrs by luciferase reporter gene based mammalian two-hybrid assay; format: cell-based, HEK-293T
[13] = biological target: T2, B-cell lymphoma 6 protein (Homo sapiens, UniProt P41182)
Description: Binding affinity to wild-type avi-tagged BCL6 BTB domain (unknown origin) by SPR analysis

[14] = biological target: T2, B-cell lymphoma 6 protein; assay: Displacement of A488-SMRT from BCL6 BTB domain (unknown origin) by fluorescence polarization assay

| SMILES | IC50 (BCoR-BCL6 [1]) [µM] | solubility [2] [µg/mL] | Papp at 3 h, 10 µM [3] [×10⁻⁶ cm/s] | other results |
| --- | --- | --- | --- | --- |
| Nc1cc(Nc2ccccc2)c2nonc2c1[N+](=O)[O-] | 69 |  |  |  |
| O=C(O)CCNc1cc(Nc2ccc3[nH]c(=O)[nH]c3c2)c(Cl)cc1[N+](=O)[O-] | 0.13 | > 72 |  | permeability [3]: Impermeable |
| COC(=O)c1ccc(Nc2ccc3[nH]c(=O)[nH]c3c2)c(Cl)c1 | 8.6 |  |  |  |
| O=C(O)c1ccc(Nc2ccc3[nH]c(=O)[nH]c3c2)c(Cl)c1 | 62 |  |  |  |
| CCOC(=O)CCNc1cc(Nc2ccc3[nH]c(=O)[nH]c3c2)c(Cl)cc1[N+](=O)[O-] | 0.43 | 0.42 (≈ 1 µM) | 15.1 |  |
| N#Cc1cc([N+](=O)[O-])ccc1Nc1ccc2[nH]c(=O)[nH]c2c1 | 4.3 |  |  |  |
| O=C1CCc2cc(Nc3cc(OC4CCOCC4)c([N+](=O)[O-])cc3Cl)ccc2N1 | 0.1 | 12 (≈ 28.7 µM) | 20.6 | Vd [4]: 1.51 L/kg; MRT [5]: 3.3 h; viability at 24 h, 30 µM [6]: 83%; Tmax [7]: 2 h; bioavailability [8]: 79.9%; AUC [9]: 1270 ng·h/mL; Cmax [10]: 233 ng/mL; clearance [11]: 10.5 mL/min/kg; IC50 (BCoR-BCL6 [12]): 0.72 µM |
| O=[N+]([O-])c1c(NCCCO)cc(Nc2ccc(F)cc2)c2nonc12 | 14 |  |  | Kd [13]: 24 µM |
| O=C(O)CC(C(=O)O)N1C(=O)/C(=C2/C(=O)Nc3ccc(Br)cc32)SC1=S (centres undefined) | 200 |  |  | IC50 [14]: 212 µM |
| O=c1[nH]c2ccc(Nc3cc(NCCCO)c([N+](=O)[O-])cc3Cl)cc2[nH]1 | 0.24 | 0.09 (≈ 0.238 µM) |  | permeability [3]: Impermeable; IC50 (BCoR-BCL6 [12]): > 100 µM |
| O=c1[nH]c2ccc(Nc3cc(OC4CCOCC4)c([N+](=O)[O-])cc3Cl)cc2[nH]1 | 0.22 | 18 (≈ 44.5 µM) | 4.5 | viability at 24 h, 30 µM [6]: 100% |
| O=c1[nH]c2ccc(Nc3ccc([N+](=O)[O-])cc3Br)cc2[nH]1 | 83 |  |  |  |
| O=C1Cc2cc(Nc3cc(OC4CCOCC4)c([N+](=O)[O-])cc3Cl)ccc2N1 |  | 12 (≈ 29.7 µM) | 28.8 | viability at 24 h, 30 µM [6]: 99% |
| NC(=O)c1ccc(Nc2ccc3[nH]c(=O)[nH]c3c2)c(Cl)c1 | 43 |  |  |  |
| O=c1[nH]c2ccc(Nc3ccc([N+](=O)[O-])cc3Cl)cc2[nH]1 | 4.5 |  |  | Kd [13]: 5 µM |
| N#Cc1ccc(Nc2ccc3[nH]c(=O)[nH]c3c2)c(Cl)c1 [TP-021n] | 110 |  |  |  |
| O=c1[nH]c2ccc(Nc3ccc([N+](=O)[O-])cc3C(F)(F)F)cc2[nH]1 | > 300 |  |  |  |
| O=c1[nH]c2ccc(Nc3cc(NCc4cccnc4)c([N+](=O)[O-])cc3Cl)cc2[nH]1 | 0.15 | < 0.23 | 14.7 |  |
| O=c1[nH]c2ccc(Nc3cc(NC4CCOCC4)c([N+](=O)[O-])cc3Cl)cc2[nH]1 | 0.13 | 0.61 (≈ 1.51 µM) | 10.1 |  |
